The values that follow are results of earlier work, collected in patent US20220047724A1, “NOVEL TRICARBOCYANINE-CYCLODEXTRIN(S) CONJUGATES AND USE THEREOF” (CYANAGEN S.R.L., priority 2014, published 2022).

Read-outs that look alike come from different tables or passages of the source.

The conditions of series [1]: Sigma-Aldrich Product No. H-107, vendor data.

As to 2-hydroxypropyl-β-cyclodextrin [HβCD], in series [1], the Water solubility is listed as 45 g/100 mL. The Toxicity entry in the series with mice (mouse, in vivo) was “non-toxic”; in the series on rabbits (rabbit, in vivo), “non-toxic”.
In the case of 2-hydroxypropyl-γ-cyclodextrin [HγCD], the Toxicity result in the series on mice (mice) and in the series on rabbits (rabbits) was “non-toxic” in each case.
